How the values were obtained:
LeuO = molecular target: T1, LeuO (Escherichia coli, UniProt P10151); test: thermal shift assay (Protein Thermal Shift Dye); type: binding; details: 10 mM compound; LeuO with leuLABCD promoter DNA; pH 7.5, EMSA buffer without BSA; activating effector
T1 sequence (P10151 1-314): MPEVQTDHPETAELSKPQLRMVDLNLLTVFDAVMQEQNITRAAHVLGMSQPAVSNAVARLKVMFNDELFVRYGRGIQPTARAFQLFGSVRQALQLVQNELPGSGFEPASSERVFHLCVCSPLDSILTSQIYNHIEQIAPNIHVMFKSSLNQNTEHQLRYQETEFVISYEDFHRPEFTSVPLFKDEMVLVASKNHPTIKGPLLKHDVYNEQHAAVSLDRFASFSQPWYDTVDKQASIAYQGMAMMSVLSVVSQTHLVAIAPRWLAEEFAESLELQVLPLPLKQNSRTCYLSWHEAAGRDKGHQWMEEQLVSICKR

LeuO (Escherichia coli) = test: EMSA; details: EMSA: 10 mM Tris-HCl, 50 mM KCl, 5 mM MgCl2, 5% glycerol, 0.1 mg/ml BSA, pH 7.5, 500 ng salmon sperm DNA in 20 µl, 15 min at room temperature; gel 0.5x TBE at …

Row | ΔTm (LeuO) [°C] | Molecule | K half (LeuO (Escherichia coli)) [nM]
1 | 1.6 | CC(C)[C@@](O)(CC(=O)O)C(=O)O [2-IPM, 2-isopropylmalate] | 
2 |  | leuLABCD promoter region fragment | 25

— publication PMC12494820, “Predicting input signals of transcription factors in Escherichia coli” (Molecular Systems Biology, 2025)
